ChEMBL document CHEMBL2177007, “Indole-derived psammaplin A analogues as epigenetic modulators with multiple inhibitory activities” (J Med Chem, 2012)
The source made the active and inactive calls. No cut-off for these calls is given here.

Tests used:
[1] = molecular target: T1, Protein deacetylase HDAC6 (Homo sapiens) (UniProt Q9UBN7); experiment: Inhibition of HDAC6 in human U937 cells assessed as induction of alpha-tubulin acetylation at 5 uM after 30 hrs by cytofluorimetric analysis; type: cell-based; details: U-937
T1 sequence (whole entry): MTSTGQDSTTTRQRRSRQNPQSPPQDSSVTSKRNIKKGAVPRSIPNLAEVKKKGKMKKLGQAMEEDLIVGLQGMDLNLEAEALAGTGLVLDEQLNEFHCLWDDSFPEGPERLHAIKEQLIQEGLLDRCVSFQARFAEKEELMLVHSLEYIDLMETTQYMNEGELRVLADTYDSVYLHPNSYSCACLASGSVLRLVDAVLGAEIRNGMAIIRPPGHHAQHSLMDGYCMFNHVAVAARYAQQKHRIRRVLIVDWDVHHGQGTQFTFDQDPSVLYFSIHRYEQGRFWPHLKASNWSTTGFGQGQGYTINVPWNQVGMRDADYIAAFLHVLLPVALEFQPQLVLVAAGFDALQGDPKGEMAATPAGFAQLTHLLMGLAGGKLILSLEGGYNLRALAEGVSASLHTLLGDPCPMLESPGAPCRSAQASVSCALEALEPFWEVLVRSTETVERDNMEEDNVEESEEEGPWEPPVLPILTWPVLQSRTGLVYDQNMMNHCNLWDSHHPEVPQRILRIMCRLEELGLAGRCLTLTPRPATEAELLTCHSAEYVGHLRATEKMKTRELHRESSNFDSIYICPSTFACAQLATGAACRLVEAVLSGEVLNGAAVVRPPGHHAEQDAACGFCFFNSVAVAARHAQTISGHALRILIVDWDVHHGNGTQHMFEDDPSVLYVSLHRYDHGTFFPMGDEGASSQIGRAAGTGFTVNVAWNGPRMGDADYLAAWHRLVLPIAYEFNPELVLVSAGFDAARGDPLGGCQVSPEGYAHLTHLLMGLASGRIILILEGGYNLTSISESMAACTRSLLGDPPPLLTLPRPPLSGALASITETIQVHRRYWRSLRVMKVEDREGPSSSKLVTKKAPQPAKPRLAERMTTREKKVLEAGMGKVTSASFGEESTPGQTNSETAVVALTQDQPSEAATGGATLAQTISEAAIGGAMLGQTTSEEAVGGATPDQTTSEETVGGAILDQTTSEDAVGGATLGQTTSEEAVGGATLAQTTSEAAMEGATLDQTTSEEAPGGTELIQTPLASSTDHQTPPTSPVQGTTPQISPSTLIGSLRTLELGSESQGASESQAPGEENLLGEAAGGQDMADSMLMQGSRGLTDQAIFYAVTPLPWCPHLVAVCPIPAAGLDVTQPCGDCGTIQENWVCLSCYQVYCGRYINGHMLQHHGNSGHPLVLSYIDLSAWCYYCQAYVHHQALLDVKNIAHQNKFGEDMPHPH

[2] = molecular target: Histone deacetylase 1 (Homo sapiens) (UniProt Q13547); experiment: Inhibition of HDAC1 in human U937 cells at 5 uM […]; type: cell-based; details: U-937
[3] = molecular target: Histone deacetylase 4 (Homo sapiens) (UniProt P56524); experiment: Inhibition of HDAC4 in human U937 cells at 5 uM […]; type: cell-based; details: U-937
[4] = molecular target: DNA (cytosine-5)-methyltransferase 1 (Homo sapiens) (UniProt P26358); experiment: Inhibition of recombinant DNMT1 using S-adenosyl-L-[methyl-3H]methionine as substrate at 5 uM after 2 hrs by radioactive assay
U-937 [5] = experiment: Induction of apoptosis in human U937 cells at 5 uM after 30 hrs; type: functional, cell-based
[6] = molecular target: Histone deacetylase (Homo sapiens) (UniProt Q13547+O15379+Q9UBN7+Q92769+Q9UQL6+Q8WUI4+Q9BY41+Q96DB2+P56524+Q9UKV0+Q969S8); experiment: Inhibition of HDAC in human U937 cells assessed as induction of histone H3 acetylation at 5 uM after 30 hrs by cytofluorimetric analysis; type: cell-based; details: U-937
[7] = molecular target: Protein kinase C alpha type (Homo sapiens) (UniProt P17252); experiment: Inhibition of PKCalpha in human U937 cells assessed as p21WAF1/CIP1 expression at 5 uM after 30 hrs by cytofluorimetric analysis; type: cell-based; details: U-937
[8] = molecular target: T2, NAD-dependent protein deacetylase sirtuin-1 (Homo sapiens) (UniProt Q96EB6); experiment: Inhibition of SIRT1 in human MCF7 cells assessed as p53 acetylation on lysine 382 after 24 hrs by Western blot analysis; type: cell-based
T2 sequence (whole entry): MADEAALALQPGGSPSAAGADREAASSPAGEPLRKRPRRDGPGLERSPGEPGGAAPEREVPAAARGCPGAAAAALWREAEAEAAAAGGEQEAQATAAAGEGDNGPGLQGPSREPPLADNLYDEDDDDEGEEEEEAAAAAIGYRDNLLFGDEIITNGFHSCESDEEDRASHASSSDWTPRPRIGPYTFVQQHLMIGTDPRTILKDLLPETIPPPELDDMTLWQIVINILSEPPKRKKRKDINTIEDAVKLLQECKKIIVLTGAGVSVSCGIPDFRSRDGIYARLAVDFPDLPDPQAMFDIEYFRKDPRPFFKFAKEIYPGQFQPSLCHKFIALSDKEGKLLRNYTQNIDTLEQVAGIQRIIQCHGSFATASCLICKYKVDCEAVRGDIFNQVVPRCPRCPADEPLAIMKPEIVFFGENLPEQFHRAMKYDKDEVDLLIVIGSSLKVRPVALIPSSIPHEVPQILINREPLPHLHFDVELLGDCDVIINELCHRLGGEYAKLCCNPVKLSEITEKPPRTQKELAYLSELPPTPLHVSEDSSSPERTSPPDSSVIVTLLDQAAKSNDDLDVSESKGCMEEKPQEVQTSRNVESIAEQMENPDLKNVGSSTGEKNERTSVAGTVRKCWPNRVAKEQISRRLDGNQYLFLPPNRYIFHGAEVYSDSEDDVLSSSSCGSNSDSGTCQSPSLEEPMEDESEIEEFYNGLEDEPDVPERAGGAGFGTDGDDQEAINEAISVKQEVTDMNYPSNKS

U-937 [9] = experiment: Effect on DNMT1 level in human U937 cells at 0.5 to 5 uM after 24 hrs by Western blot analysis; type: functional, cell-based
[10] = molecular target: DNA (cytosine-5)-methyltransferase 1 (Homo sapiens) (UniProt P26358); experiment: Inhibition of DNMT1 human u937 cells assessed as reactivation of p16 expression at 0.5 to 5 uM after 24 hrs by Western blot analysis
[11] = molecular target: T2, NAD-dependent protein deacetylase sirtuin-1 (Homo sapiens); experiment: Inhibition of SIRT1 in human U937 cells assessed as H3 acetylation on lysine K56 at 5 uM after 24 hrs by Western blot analysis; type: cell-based; details: U-937
[12] = molecular target: T2, NAD-dependent protein deacetylase sirtuin-1 (Homo sapiens); experiment: Inhibition of SIRT1 in human U937 cells assessed as H3 acetylation on lysine K9 at 5 uM after 24 hrs by Western blot analysis; type: cell-based; details: U-937
[13] = molecular target: T2, NAD-dependent protein deacetylase sirtuin-1 (Homo sapiens); experiment: Inhibition of human recombinant SIRT1 using KI-177 as substrate at 5 uM after 30 mins by fluorescence assay
[14] = molecular target: DNA (cytosine-5)-methyltransferase 1 (Homo sapiens) (UniProt P26358); experiment: Inhibition of DNMT1 human U937 cells assessed as reactivation of p16 expression at 5 uM after 24 hrs by Western blot analysis; type: cell-based; details: U-937
[15] = molecular target: T2, NAD-dependent protein deacetylase sirtuin-1 (Homo sapiens); experiment: Inhibition of SIRT1 in human MCF7 cells assessed as p53 acetylation on lysine 382 at 5 uM after 24 hrs by Western blot analysis; type: cell-based
U-937 [16] = experiment: Induction of cell differentiation in human U937 cells assessed as CD11c expression at 5 uM after 30 hrs by cytofluorimetric analysis; type: functional, cell-based

Chain of Histone deacetylase 4 (Homo sapiens) (P56524 whole entry): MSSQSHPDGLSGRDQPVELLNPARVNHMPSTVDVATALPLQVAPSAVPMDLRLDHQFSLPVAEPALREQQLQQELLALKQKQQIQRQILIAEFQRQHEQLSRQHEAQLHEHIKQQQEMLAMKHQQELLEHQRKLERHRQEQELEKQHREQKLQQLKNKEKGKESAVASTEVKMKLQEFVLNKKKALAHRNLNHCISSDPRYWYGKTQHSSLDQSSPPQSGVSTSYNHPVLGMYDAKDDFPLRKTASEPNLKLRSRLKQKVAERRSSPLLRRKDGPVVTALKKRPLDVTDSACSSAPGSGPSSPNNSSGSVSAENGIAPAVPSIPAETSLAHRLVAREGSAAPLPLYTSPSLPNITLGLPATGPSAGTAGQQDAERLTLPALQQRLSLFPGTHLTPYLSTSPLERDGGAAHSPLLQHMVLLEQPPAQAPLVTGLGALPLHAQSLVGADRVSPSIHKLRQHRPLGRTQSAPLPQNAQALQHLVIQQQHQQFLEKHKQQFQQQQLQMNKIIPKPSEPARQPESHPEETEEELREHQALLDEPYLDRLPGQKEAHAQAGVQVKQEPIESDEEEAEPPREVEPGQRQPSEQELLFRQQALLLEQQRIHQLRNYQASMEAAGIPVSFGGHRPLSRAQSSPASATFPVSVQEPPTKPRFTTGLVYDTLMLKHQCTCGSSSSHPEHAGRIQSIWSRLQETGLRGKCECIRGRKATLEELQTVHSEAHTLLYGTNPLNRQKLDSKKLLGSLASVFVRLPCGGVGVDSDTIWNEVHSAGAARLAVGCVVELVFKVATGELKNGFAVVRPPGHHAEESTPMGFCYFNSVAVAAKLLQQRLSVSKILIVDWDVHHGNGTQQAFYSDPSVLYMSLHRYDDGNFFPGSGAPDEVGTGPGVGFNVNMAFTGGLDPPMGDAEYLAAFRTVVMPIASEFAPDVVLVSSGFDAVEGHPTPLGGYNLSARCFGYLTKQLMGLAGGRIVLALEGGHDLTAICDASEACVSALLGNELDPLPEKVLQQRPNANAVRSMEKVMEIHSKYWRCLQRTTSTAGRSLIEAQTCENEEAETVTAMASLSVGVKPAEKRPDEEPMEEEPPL
Chain of DNA (cytosine-5)-methyltransferase 1 (Homo sapiens) (P26358 whole entry): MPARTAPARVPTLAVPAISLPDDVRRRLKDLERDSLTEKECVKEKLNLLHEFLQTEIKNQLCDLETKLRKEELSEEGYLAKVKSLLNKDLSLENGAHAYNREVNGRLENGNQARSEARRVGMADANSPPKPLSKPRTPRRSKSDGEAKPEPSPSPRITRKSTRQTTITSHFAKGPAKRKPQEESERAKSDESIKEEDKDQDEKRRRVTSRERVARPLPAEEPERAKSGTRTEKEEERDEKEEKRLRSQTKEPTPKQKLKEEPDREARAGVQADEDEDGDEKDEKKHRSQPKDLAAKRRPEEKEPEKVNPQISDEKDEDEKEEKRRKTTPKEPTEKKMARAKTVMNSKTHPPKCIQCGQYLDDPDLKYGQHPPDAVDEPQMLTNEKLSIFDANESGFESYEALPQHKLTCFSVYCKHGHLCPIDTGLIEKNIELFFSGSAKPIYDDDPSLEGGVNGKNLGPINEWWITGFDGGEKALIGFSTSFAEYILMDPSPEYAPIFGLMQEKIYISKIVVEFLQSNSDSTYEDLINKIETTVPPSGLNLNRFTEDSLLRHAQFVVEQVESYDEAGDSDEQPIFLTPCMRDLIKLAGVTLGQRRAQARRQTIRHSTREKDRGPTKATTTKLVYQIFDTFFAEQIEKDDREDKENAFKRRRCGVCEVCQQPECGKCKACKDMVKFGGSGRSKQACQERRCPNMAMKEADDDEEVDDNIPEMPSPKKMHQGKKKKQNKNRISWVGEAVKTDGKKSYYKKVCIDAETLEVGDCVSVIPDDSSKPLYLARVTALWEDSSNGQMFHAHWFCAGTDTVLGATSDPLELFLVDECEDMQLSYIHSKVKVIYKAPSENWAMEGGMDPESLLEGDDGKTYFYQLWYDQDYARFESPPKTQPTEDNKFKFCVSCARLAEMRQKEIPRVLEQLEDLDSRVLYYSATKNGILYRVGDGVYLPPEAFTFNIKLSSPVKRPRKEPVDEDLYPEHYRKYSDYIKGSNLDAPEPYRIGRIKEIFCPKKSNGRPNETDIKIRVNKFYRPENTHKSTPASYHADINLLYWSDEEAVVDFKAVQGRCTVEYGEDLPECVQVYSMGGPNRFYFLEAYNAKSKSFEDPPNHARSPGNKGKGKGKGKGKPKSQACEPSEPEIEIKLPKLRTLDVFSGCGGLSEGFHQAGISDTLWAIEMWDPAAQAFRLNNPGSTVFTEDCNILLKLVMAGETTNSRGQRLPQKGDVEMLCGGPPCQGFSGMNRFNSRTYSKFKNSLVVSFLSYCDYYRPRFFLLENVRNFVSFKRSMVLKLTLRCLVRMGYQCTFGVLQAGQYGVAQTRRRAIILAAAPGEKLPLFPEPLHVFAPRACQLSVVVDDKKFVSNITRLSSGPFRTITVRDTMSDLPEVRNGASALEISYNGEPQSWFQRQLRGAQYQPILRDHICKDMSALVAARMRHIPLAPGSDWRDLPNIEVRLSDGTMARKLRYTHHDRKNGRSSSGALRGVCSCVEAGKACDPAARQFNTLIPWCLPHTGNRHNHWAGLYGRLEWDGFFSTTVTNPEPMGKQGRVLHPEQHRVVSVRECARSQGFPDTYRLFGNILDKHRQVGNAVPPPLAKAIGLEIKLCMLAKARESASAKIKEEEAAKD
Chain of Histone deacetylase 1 (Homo sapiens) (Q13547 whole entry): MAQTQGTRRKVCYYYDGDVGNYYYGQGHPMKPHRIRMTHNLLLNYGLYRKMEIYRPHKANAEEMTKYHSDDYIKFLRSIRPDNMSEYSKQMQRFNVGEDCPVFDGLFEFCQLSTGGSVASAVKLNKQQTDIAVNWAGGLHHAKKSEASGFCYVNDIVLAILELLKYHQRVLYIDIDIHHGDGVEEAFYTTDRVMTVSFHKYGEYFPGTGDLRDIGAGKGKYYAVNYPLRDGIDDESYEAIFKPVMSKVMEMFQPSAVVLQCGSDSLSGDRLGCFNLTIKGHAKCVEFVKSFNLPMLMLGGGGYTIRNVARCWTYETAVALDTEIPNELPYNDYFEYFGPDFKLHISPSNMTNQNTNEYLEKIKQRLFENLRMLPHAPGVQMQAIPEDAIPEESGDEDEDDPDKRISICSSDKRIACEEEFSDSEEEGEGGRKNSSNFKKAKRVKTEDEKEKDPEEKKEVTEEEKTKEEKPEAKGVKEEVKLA

SMILES	inhibition [1]	inhibition [2]	inhibition [3]	Activity (U-937 [5])	inhibition [6]	inhibition [7]	Activity (U-937 [9])	inhibition [13]	other results
O=C(NCCCCCSSCCCCCNC(=O)/C(Cc1c[nH]c2ccc(Br)cc12)=N/O)/C(Cc1c[nH]c2ccc(Br)cc12)=N/O	Active	40%	20%	–	–	–	–	–	–
O=C(CCc1c[nH]c2ccc(Br)cc12)NCCSSCCNC(=O)CCc1c[nH]c2ccc(Br)cc12	Active	Active	–	Active	Active	Active	inactive	–	inhibition [4]: inactive; inhibition [8]: Dose-dependent effect
O=C(NCCSSCCNC(=O)/C(Cc1c[nH]c2ccc(Br)cc12)=N/OCc1ccccc1)/C(Cc1c[nH]c2ccc(Br)cc12)=N/OCc1ccccc1	Active	–	–	–	–	–	–	–	–
O=C(NCCSSCCNC(=O)/C(Cc1c[nH]c2ccc(Cl)cc12)=N/O)/C(Cc1c[nH]c2ccc(Cl)cc12)=N/O	Active	Active	Active	Active	Active	Active	–	–	–
CO/N=C(\Cc1c[nH]c2ccc(Br)cc12)C(=O)NCCSSCCNC(=O)/C(Cc1c[nH]c2ccc(Br)cc12)=N/OC	Active	Active	Active	–	–	–	inactive	–	inhibition [4]: Active; inhibition [10]: Active
O=C(NCCCCCCCCNC(=O)/C(Cc1c[nH]c2ccc(Br)cc12)=N/O)/C(Cc1c[nH]c2ccc(Br)cc12)=N/O	Active	–	–	–	–	–	inactive	Active	inhibition [4]: inactive; inhibition [11]: Active; inhibition [10]: Active; inhibition [12]: Active
O=C(NCCO)/C(Cc1c[nH]c2ccc(Br)cc12)=N/O	Active	–	–	–	–	–	inactive	inactive	inhibition [11]: inactive; inhibition [14]: Active; inhibition [12]: inactive; inhibition [8]: Dose-dependent effect
Cn1cc(CCC(=O)NCCSSCCNC(=O)CCc2cn(C)c3ccc(Br)cc23)c2cc(Br)ccc21	Active	–	–	–	–	–	–	–	–
O=C(NCCSSCCNC(=O)/C(Cc1c[nH]c2ccccc12)=N/O)/C(Cc1c[nH]c2ccccc12)=N/O	Active	40%	20%	–	Active	Active	inactive	Active	inhibition [15]: Active
O=C(NCCCSSCCCNC(=O)/C(Cc1c[nH]c2ccc(Br)cc12)=N/O)/C(Cc1c[nH]c2ccc(Br)cc12)=N/O	Active	–	–	–	–	–	–	–	Activity (U-937 [16]): Active
O=C(NCCSSCCNC(=O)/C(Cc1c[nH]c2cccc(Br)c12)=N/O)/C(Cc1c[nH]c2cccc(Br)c12)=N/O	Active	–	–	–	–	–	–	–	–
COc1ccc2[nH]cc(C/C(=N\O)C(=O)NCCSSCCNC(=O)/C(Cc3c[nH]c4ccc(OC)cc34)=N/O)c2c1	Active	Active	Active	Active	Active	Active	–	–	Activity (U-937 [16]): Active
O=C(NCCSSCCNC(=O)/C(Cc1cn(Cc2ccc(Br)cc2)c2ccc(Br)cc12)=N/O)/C(Cc1cn(Cc2ccc(Br)cc2)c2ccc(Br)cc12)=N/O	Active	–	–	–	–	–	inactive	Active	inhibition [11]: Active; inhibition [12]: Active
O=C(NCCCCSSCCCCNC(=O)/C(Cc1c[nH]c2ccc(Br)cc12)=N/O)/C(Cc1c[nH]c2ccc(Br)cc12)=N/O	Active	40%	20%	Active	inactive	–	inactive	inactive	Activity (U-937 [16]): Active; inhibition [11]: Active; inhibition [15]: inactive; inhibition [10]: Active; inhibition [12]: Active
O=C(NCCSSCCNC(=O)/C(Cc1c[nH]c2ccc(OCc3ccccc3)cc12)=N/O)/C(Cc1c[nH]c2ccc(OCc3ccccc3)cc12)=N/O	Active	Active	Active	Active	Active	Active	inactive	–	inhibition [4]: Active; Activity (U-937 [16]): Active; inhibition [14]: Active; inhibition [8]: Dose-dependent effect
O=C(NCCSSCCNC(=O)/C(Cc1c[nH]c2ccc(F)cc12)=N/O)/C(Cc1c[nH]c2ccc(F)cc12)=N/O	inactive	Active	Active	Active	inactive	inactive	–	–	–
O=C(O)[C@H](Cc1c[nH]c2ccccc12)N1C(=O)c2ccccc2C1=O	–	–	–	–	–	–	–	–	inhibition [4]: Active
COCCNC(=O)/C(Cc1c[nH]c2ccc(Br)cc12)=N/O	Active	–	–	–	–	–	inactive	inactive	inhibition [11]: inactive; inhibition [12]: inactive
O=C(NCCSSCCNC(=O)/C(Cc1c[nH]c2ccc(I)cc12)=N/O)/C(Cc1c[nH]c2ccc(I)cc12)=N/O	Active	Active	Active	Active	Active	Active	–	–	–
